Measurements reported in patent publication US20170027938A1, “Combination” (Novartis AG, priority 2011, published 2017).

System: 231/LM2-4 human breast cancer cells
Assay: Advanced metastatic breast cancer model (231/LM2-4), survival after primary tumor resection
Format: in vivo, CB-17 SCID mice
Details: for Median survival: therapy initiated 19 days after resection
Source text: The original cell line, MDA-MB 231, was a gift from Dr. Jeffrey F. Lemontt in September, 1989, together with other variants of this cell line. Cell line 231/LM2-4 (human breast cancer cells) used in the study was derived by one of the inventors as described in Munoz R, Man S, Shaked Y, et al. Highly efficacious non-toxic treatment for advanced metastatic breast cancer using combination UFT-cyclophosphamide metronomic chemotherapy, Cancer Res 2006; 66:3386-91.
Two million 231/LM2-4 human breast cancer cells were implanted into the mammary fat pad of 6-8 week old female CB-17 SCID mice purchased from Charles River Canada. Twenty days later when tumor volumes were approximately 400 mm^3, the primary tumors were surgically resected. Therapy was initiated 19 days after resection when visceral metastases were established in sites such as lung and liver. Mice were randomized into groups of 4 and treated as follows: 1) Control—vehicle; 2) Low dose metronomic oral topotecan; 3) pazopanib; 4) Low dose metronomic oral topotecan+pazopanib; 5) Maximum tolerated dose topotecan; and 6) maximum tolerated dose topotecan+pazopanib. The schedule and doses of drugs used were metronomic oral topotecan 1 mg/kg/d by gavage, maximum tolerated dose topotecan 1.5 mg/kg by gavage for 5 consecutive days followed by 16 days break ip, pazopanib 150 mg/kg/d by gavage, and control mice were given the topotecan vehicle and/or pazopanib vehicle. The oral topotecan and pazopanib preparations were mixed just prior to administration to avoid possible drug interaction. Institutional guidelines for survival endpoint were followed.

For `CC[C@@]1(O)C(=O)OCc2c1cc1n(c2=O)Cc2cc3c(CN(C)C)c(O)ccc3nc2-1` [topotecan, (S)-10-[(dimethylamino)methyl]-4-ethyl-4,9-dihydroxy-1H-pyrano[3′,4′:6,7]indolizino [1,2-b]quinoline-3,14-(4H,12H)-dione], the “Survival benefit compared to control untreated mice (FIG. 1)” value (LDM oral topotecan alone, 1 mg/kg/d by gavage) was “neither low dose metronomic (LDM) oral topotecan alone nor pazopanib alone had any survival benefit”, the Median survival (low dose metronomic (LDM) oral topotecan alone, 1 mg/kg/d by gavage) was 56 days and the Median survival (maximum tolerated dose (MTD) topotecan 1.5 mg/kg for 5 consecutive days followed by 16 days break) was 63 days.
